# According to ChEMBL document CHEMBL6096677, “Discovery of HZS60 as a Novel Brain Penetrant NMDAR/TRPM4 Interaction Interface Inhibitor with Improved Activity and Pharmacokinetic Properties for the Treatment of Cerebral Ischemia” (J Med Chem, 2025):
# Columns and labels:
# Cortical neurone [1] = assay: Neuroprotective activity against NMDA-induced excitotoxic cell death in C57BL/6 mouse primary cortical neurons assessed as cell viability at 10 uM by CCK8 assay (reference value: 16.31 +/- 3.19 %); assay type: functional; conditions: C57BL/6, Cortical neurone, read-out: Activity
# Cortical neurone [2] = assay: Neuroprotective activity against OGD/R-induced ischemic injury in C57BL/6 mouse primary cortical neurons assessed as cell viability at 10 uM by CCK8 assay (reference value: 21.96 +/- 10.86 %); assay type: functional; conditions: C57BL/6, Cortical neurone, read-out: Activity
# [3] = MRT (0 to t) in ICR mouse at 25 mg/kg, IG by LC-MS/MS analysis; assay type: ADME, organism-based; conditions: in vivo, po
# [4] = Tmax in ICR mouse at 5 mg/kg, iv by LC-MS/MS analysis; assay type: ADME, organism-based; conditions: in vivo
# [5] = MRT (0 to t) in ICR mouse at 5 mg/kg, iv by LC-MS/MS analysis; assay type: ADME, organism-based; conditions: in vivo
# [6] = Apparent volume of distribution in ICR mouse at 5 mg/kg, iv by LC-MS/MS analysis; assay type: ADME, organism-based; conditions: in vivo, read-out: Vz
# [7] = Half life in ICR mouse at 25 mg/kg, IG by LC-MS/MS analysis; assay type: ADME, organism-based; conditions: in vivo, po
# [8] = Half life in ICR mouse at 5 mg/kg, iv by LC-MS/MS analysis; assay type: ADME, organism-based; conditions: in vivo
# [9] = AUC (0 to t) in ICR mouse at 5 mg/kg, iv by LC-MS/MS analysis; assay type: ADME, organism-based; conditions: in vivo
# [10] = AUC (0 to infinity) in ICR mouse at 5 mg/kg, iv by LC-MS/MS analysis; assay type: ADME, organism-based; conditions: in vivo
# [11] = Cmax in ICR mouse at 25 mg/kg, IG by LC-MS/MS analysis; assay type: ADME, organism-based; conditions: in vivo, po
# [12] = MRT (0 to infinity) in ICR mouse at 5 mg/kg, iv by LC-MS/MS analysis; assay type: ADME, organism-based; conditions: in vivo
# [13] = AUC (0 to infinity) in ICR mouse at 25 mg/kg, IG by LC-MS/MS analysis; assay type: ADME, organism-based; conditions: in vivo, po
# [14] = MRT (0 to infinity) in ICR mouse at 25 mg/kg, IG by LC-MS/MS analysis; assay type: ADME, organism-based; conditions: in vivo, po
# [15] = Clearance in ICR mouse at 5 mg/kg, iv by LC-MS/MS analysis; assay type: ADME, organism-based; conditions: in vivo
# [16] = AUC (0 to t) in ICR mouse at 25 mg/kg, IG by LC-MS/MS analysis; assay type: ADME, organism-based; conditions: in vivo, po
# [17] = Cmax in ICR mouse at 5 mg/kg, iv by LC-MS/MS analysis; assay type: ADME, organism-based; conditions: in vivo
# [18] = Oral bioavailability in ICR mouse at 25 mg/kg by LC-MS/MS analysis; assay type: ADME, organism-based; conditions: in vivo
# [19] = Tmax in ICR mouse at 25 mg/kg, IG by LC-MS/MS analysis; assay type: ADME, organism-based; conditions: in vivo, po
Structure (SMILES),viability at 10 µM (Cortical neurone [1]) [%],further results
CCN(CCN)Cc1ccccc1Br,46.2,–
CCN(CCN)Cc1cc(C#N)ccc1F,68.1,–
CCN(CCN)Cc1cc(C#N)ccc1Cl,86.5,–
CCN(CCN)C(C)c1cccc(C#N)c1Br (configuration not stated),67.4,viability at 10 µM (Cortical neurone [2]): 43.2%
CCN(CCN)Cc1cccc(C)c1,22.7,–
CCN(CCN)Cc1cccc(Br)c1,63.2,MRT last [3]: 2.38 h; Tmax [4]: 4.98 min; MRT last [5]: 1.76 h; Vd [6]: 44.1 L/kg; half-life [7]: 2.07 h; viability at 10 µM (Cortical neurone [2]): 26.5%; half-life [8]: 1.82 h; AUC(0-t) [9]: 282 ng·h/mL; AUC(0-inf) [10]: 295 ng·h/mL; Cmax [11]: 348 ng/mL; MRT inf [12]: 2.15 h; AUC(0-inf) [13]: 980 ng·h/mL; MRT inf [14]: 2.96 h; clearance [15]: 293 mL/min/kg; AUC(0-t) [16]: 914 ng·h/mL; Cmax [17]: 207 ng/mL; bioavailability [18]: 66.4%; Tmax [19]: 0.583 h
CCCN(CCN)Cc1cccc(Br)c1,44.6,–
CCN(CCN)Cc1ccc(F)c(C#N)c1,24.1,–
CCN(CCN)C(C)c1cccc(C#N)c1Cl (configuration not stated),85.3,viability at 10 µM (Cortical neurone [2]): 59.8%
CCN(CCN)Cc1cccc(C#N)c1Cl,93.1,–
CCN(CCN)C(C)c1cc(Br)ccc1Br (configuration not stated),46.6,–
CCN(CCN)Cc1cccc(Br)c1Cl,47.1,–
CCN(CCN)Cc1cccc(Br)c1F,86.5,–
CCN(CCN)Cc1cccc(I)c1,44,–
CCN(CCN)Cc1cccc(Br)c1I,11.5,–
CCN(CCN)C(C)c1cc(C#N)ccc1F (configuration not stated),82.4,viability at 10 µM (Cortical neurone [2]): 34.6%
CCN(CCN)Cc1cccc(F)c1,32,–
CCN(CCN)Cc1c(F)ccc(C#N)c1Cl,88,–
CCN(CCN)Cc1cccc([N+](=O)[O-])c1,36,–
CCN(CCN)Cc1c(F)ccc(Br)c1F,97.9,–
CCN(CCN)Cc1cc(Br)ccc1Cl,84.9,–

Structure (SMILES),viability at 10 µM (Cortical neurone [1]) [%],further results
CCN(CCN)C(C)(C)c1cccc(Br)c1,52.5,–
CCN(CCN)C1(c2cccc(Br)c2)CC1,39.1,–
CCN(CCN)C(C)c1c(Cl)ccc(C#N)c1F (configuration not stated),64.5,viability at 10 µM (Cortical neurone [2]): 38.8%
CCN(CCNC)Cc1cccc(Br)c1,17.6,–
CCN(CCN)Cc1c(Cl)ccc(C#N)c1F,82.9,–
CCN(CCN)Cc1ccc(Br)cc1,21.2,–
CCN(CCN)Cc1ccc(Br)c(C#N)c1,22.2,–
NC1CCCN(Cc2cccc(Br)c2)C1 (configuration not stated),33,–
CCN(CCN)Cc1cccc(C#N)c1,92.4,–
CCN(CCN)Cc1cc(C#N)ccc1I,74.6,–
CCN(CCN)C(C)c1cccc(C#N)c1F (configuration not stated),70.4,viability at 10 µM (Cortical neurone [2]): 44.5%
CCN(CCN)C(C)c1cc(C#N)ccc1Cl (configuration not stated),77.7,viability at 10 µM (Cortical neurone [2]): 61.1%
CCN(CCN)C(C)c1cccc(Br)c1F (configuration not stated),77,viability at 10 µM (Cortical neurone [2]): 55.6%
CCN(CCN)C(C)c1c(F)ccc(Br)c1F (configuration not stated),51.6,–
CCN(CCN)Cc1cc(C#N)ccc1Br,77.8,–
CCN(CCN)C(C)c1c(F)ccc(C#N)c1Cl (configuration not stated),70.5,viability at 10 µM (Cortical neurone [2]): 64.3%
CCN(CCN)Cc1cccc(OC)c1,39.6,–
CCN(CCN)C(C)c1cccc(C#N)c1 (configuration not stated),85.7,viability at 10 µM (Cortical neurone [2]): 69.7%
CCC(c1cccc(Br)c1)N(CC)CCN (configuration not stated),38.3,–
CCN(CCN)C(C)c1cc(Br)ccc1Cl (configuration not stated),81.6,viability at 10 µM (Cortical neurone [2]): 46.6%
CCN(CCN)Cc1c(F)ccc(C#N)c1F,90.4,–

Structure (SMILES),viability at 10 µM (Cortical neurone [1]) [%],further results
CCN(CCN)Cc1cc(Br)ccc1Br,83.4,–
CCN(CCN)C(C)c1cccc(Br)c1 (configuration not stated),95.9,viability at 10 µM (Cortical neurone [2]): 53.2%
CCN(CCN)Cc1cccc(Br)c1Br,86.5,–
CCN(CCN)Cc1cc(Br)ccc1F,87.1,–
CCN(CCN)Cc1ccc(Cl)c(C#N)c1,22.6,–
NC1CCN(Cc2cccc(Br)c2)C1 (configuration not stated),20.1,–
CCN(CCN(C)C)Cc1cccc(Br)c1,18.4,–
CCN(CCN)C(C)c1cc(C#N)ccc1Br (configuration not stated),55,–
CCN(CCCN)Cc1cccc(Br)c1,10.8,–
CCN(CCN)Cc1cccc(-c2ccccc2)c1,24.9,–
CCN(CCN)Cc1cc(F)cc(Br)c1,18.3,–
CCN(CCN)C(C)c1cc(Br)ccc1F (configuration not stated),90.7,viability at 10 µM (Cortical neurone [2]): 36.6%
CCN(CCN)Cc1cc(Br)cc(C#N)c1,33,–
CCN(CCN1CCCC1)Cc1cccc(Br)c1,19.3,–
CCN(CCN)Cc1cc(F)cc(C#N)c1,24,–
CCN(CCN)Cc1cccc(C(F)(F)F)c1,16.9,–
CCN(CCN)Cc1cccc(C#N)c1Br,76.5,–
CCN(CCN)Cc1cccc(C#N)c1F,79.7,–
CCN(CCN)Cc1cccc(Cl)c1,44.3,–
CCN(CCN)Cc1ccc(F)c(Br)c1,26.6,–
